The source of these data is publication PMC6382874, “Succinylation-dependent mitochondrial translocation of PKM2 promotes cell survival in response to nutritional stress” (Cell Death & Disease, 2019).

One experiment deals with PKM2 (Homo sapiens, UniProt P14618). The experiment is described as follows: pyruvate kinase activity in lysate of treated HCT116 cells. The conditions noted are these: 6 h treatment, Fig. 5c. The experiment is classed as cell-based. Further details: endogenous in cells; host or cells: HCT116. The method, then: HCT116 cells were seeded overnight into 6-well plates at 1,000,000 cells/well in DMEM media. Test compounds were added for 6 h. Cells were washed two times with ice-cold phosphate-buffered saline (PBS) and lysed in lysis buffer. Lysate was analyzed for pyruvate kinase activity as described above.

Another experiment has as its target T1, PKL (Homo sapiens, UniProt P30613).
T1 construct: purchased Sino Biological Inc
The experiment is described as follows: fluorescent PK-LDH coupled assay, PKL. The experiment is classed as biochemical. To be noted: PK-LDH coupled assay; read-out: IC50 (PKL). On the procedure: (§1) Human cDNA for PKM2, PKM1, and VDAC3 were separately cloned into a pET28a (+) and pGEX-4T-1 vector with an N-terminal His-tag and N-terminal GST-tag and purified from the Escherichia coli strain BL21 (Invitrogen) using Ni–agarose beads and GST agarose beads (Qiagen) as described previously. PKL was purchased from Sino Biological Inc. in China.
(§2) Pyruvate kinase activity was measured with a fluorescent pyruvate kinase–lactate dehydrogenase coupled assay as described previously. All compounds were tested in a kinetic mode by coupling the generation of pyruvate by pyruvate kinase to the depletion of NADH through lactate dehydrogenase. For PKM2, 40 μL of buffer (50 mM Tris–HCl, pH 7.5, 10 mM KCl, 5 mM MgCl2), 1 μL of compound and 5 μL of enzyme solution were dispensed into Corning black solid 96-well plates and incubated for 15 min. Totally, 55 μL of substrate mix (final concentration, 0.5 mM PEP, 4.0 mM ADP, 0.12 mM NADH, 0.25 mM FBP, and 1 unit LDH) were then added, and the plates were placed in a FlexStation3 (Molecular Devices), followed by determination of NADH fluorescence at 30 s exposure intervals for 3–6 min. Data were collected on a FlexStation3.

The target of the next experiment is T2, PKM1 (Homo sapiens, UniProt P14618).
T2 construct: His-tag (N); made in house; host or cells: Escherichia coli BL21
The experiment is described as follows: fluorescent PK-LDH coupled assay, PKM1. In kind it is biochemical. The conditions noted are these: recombinant enzyme, PK-LDH coupled assay; read-out: IC50 (PKM1). The method, then:
as §1, §2

For experiment [1], the system named is PKM2 knockdown HCT116 cells. The experiment is described as follows: annexin v stain apoptosis assay in PKM2 knockdown cells. In kind it is cell-based, human. The conditions noted are these: 20 µM, 12 h. The text has this:
Fig. 5 Identification and characterization of PKM2 inhibitors. a PKM2 inhibitors. […] It prints only the data set name 'Data: pkm2_NDH', so the substance label is left empty. / Panel b, N: small print, 0.941 ±0.0712, digits uncertain / Panel b, K: small print, 8.63E4 ±3.63E4, the digits 8, 6 and 3 are uncertain / Panel b, ΔH: small print, -5962 ±675.9, the digits 5, 9 and 6 are uncertain / Panel b, ΔS: small print, 2.59, the digits 5 and 9 are uncertain
(§3) We assessed the anti-tumor effects of compound 8 by evaluation of cancer cell viability. Compound 8 reduced cell viability with an IC50 of about 5 µM in MTT reduction assays in HCT116, MCF7, and H1299 cells (Table 2). […] To determine whether cancer cell death brought about by compound 8 is PKM2 dependent, PKM2 was knocked down in HCT116 cells using two different shRNA sequences that specifically targeted exon 10 without interfering with PKM1 expression. Compound 8 is an inhibitor which causes a loss of function of PKM2. If PKM2 is a specially targeted by compound 8, its knockdown should render cells more vulnerable to compound 8-mediated PKM2 inhibition since shRNA and compound 8 work synergistically by reducing the intracellular drug target concentration.
Two shRNAs with PKM2 specific exon 10 sequence knockdown were used (5'-[…]-3'; 5'-[…]-3'), and a shRNA with no effect on PKM2 levels was employed as a control (5'-[…]-3). […]

The next experiment deals with H1299 cells. The experiment is described as follows: cell viability test, H1299. The conditions noted are these: cell viability, 48 h, read-out: IC50 (H1299). The experiment is classed as cell-based. On the procedure: as §3
Cells were seeded in 96-well plates at 5000 cells/well in DMEM media overnight. Cells were treated with different concentrations of test compound for 48 h at 37 °C in 5% CO2. Cell viability was assayed with the MTS assay (Promega) and trypan blue staining according to the manufacturer’s instructions.

One may read the IC50 as the concentration needed to halve the response being measured.

The structures appear in SMILES notation. Like-named read-outs stand apart in the source and are kept apart here.

PKM2, sequence (P14618 2-531 limits assumed): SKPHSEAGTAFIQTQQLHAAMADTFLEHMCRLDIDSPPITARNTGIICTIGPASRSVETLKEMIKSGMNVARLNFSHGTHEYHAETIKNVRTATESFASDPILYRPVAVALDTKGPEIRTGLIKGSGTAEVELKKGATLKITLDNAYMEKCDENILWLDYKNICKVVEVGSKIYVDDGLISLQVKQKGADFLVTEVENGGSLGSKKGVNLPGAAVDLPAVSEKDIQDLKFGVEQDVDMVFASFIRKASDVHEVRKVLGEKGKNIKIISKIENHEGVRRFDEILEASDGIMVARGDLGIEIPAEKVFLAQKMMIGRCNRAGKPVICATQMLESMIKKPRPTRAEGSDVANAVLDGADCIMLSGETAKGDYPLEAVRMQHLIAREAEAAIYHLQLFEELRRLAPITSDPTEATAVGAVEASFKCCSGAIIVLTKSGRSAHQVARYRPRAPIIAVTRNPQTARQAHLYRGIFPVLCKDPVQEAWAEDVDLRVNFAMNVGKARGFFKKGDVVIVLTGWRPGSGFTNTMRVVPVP
T2 sequence (P14618 1-531 isoform P14618-2): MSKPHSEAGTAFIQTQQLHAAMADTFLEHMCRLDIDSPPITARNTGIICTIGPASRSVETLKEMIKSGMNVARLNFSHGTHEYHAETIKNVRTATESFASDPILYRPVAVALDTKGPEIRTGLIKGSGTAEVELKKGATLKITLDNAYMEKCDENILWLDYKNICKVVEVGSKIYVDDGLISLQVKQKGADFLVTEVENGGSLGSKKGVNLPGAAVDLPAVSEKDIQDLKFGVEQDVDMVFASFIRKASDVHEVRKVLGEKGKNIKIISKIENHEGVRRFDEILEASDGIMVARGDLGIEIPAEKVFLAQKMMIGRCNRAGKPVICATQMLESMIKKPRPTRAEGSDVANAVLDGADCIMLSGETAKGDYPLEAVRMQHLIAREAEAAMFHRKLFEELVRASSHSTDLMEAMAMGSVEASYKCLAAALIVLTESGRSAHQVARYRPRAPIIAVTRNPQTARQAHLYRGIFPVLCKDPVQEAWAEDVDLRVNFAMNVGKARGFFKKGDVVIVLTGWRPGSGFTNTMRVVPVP
T1 sequence (P30613 1-543 isoform P30613-2, species assumed): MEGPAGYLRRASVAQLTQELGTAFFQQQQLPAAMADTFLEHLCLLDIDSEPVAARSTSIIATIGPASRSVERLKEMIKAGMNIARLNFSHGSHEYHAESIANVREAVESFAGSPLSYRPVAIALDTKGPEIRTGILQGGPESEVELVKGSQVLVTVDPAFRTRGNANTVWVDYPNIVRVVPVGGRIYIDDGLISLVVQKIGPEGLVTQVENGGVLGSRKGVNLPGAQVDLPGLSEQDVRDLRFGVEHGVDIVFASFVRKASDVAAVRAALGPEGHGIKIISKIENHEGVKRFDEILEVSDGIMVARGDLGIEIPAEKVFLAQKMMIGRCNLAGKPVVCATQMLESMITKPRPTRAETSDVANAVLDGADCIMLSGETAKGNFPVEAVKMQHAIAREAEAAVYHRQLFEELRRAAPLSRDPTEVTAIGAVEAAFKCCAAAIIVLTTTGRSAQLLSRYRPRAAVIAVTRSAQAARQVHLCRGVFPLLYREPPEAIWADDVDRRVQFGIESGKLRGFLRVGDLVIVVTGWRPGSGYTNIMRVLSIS

As for `CCCN(CCC)P(N)(=O)OCC1=CC(=O)c2ccccc2C1=O` (stereo not shown) [Compound 8], the “inhibition of PKM2 activity in cancer cells” value at PKM2 is “inhibits PKM2 activity in HCT116 cells in a dose dependent manner”; on PKM2 (listed as compound 8), “dose dependent”. The IC50 is 20.4 ± 3.54 µM on PKL; 10.5 ± 1.52 µM at PKM1; roughly 5 µM in the experiment on H1299 cells (Homo sapiens, NCI-H1299, 48 h); 4.75 ± 1.15 µM in the experiment on H1299 cells. Further, the “apoptosis of PKM2 knockdown cells” value in experiment [1] is “increased the apoptosis of PKM2 knockdown cells”.
